According to patent US8343912B2, “Antibiotic compositions for the treatment of gram negative infections” (priority 2008, dated 2013):
Numbered stars: 1 amine (or outer) side, 2 acyl side, 3 side chain; on linkers, the order of the positions; unused ones are H or OH. Bridge positions count the residues as written; N and C are the ends. Square brackets hold non-standard residues; d marks the D form. Peptide text beside a SMILES is read from it. * marks the point of attachment. NH(2-ClPh) = Clc1ccccc1N*; Dab = NCC[C@H](N)C(=O)O; CO = O=C([*:1])[*:2]

What was measured:
E. coli 1699 = test: MIC, broth microdilution; format: cell-based, Escherichia coli; conditions: Table 3B
Procedure: (§1) MIC testing was performed according to Clinical and Laboratory Standards Institute (CLSI) M7-A7 (2006) broth microdilution methods. Unless otherwise indicated, MIC values are provided in units of micrograms per milliliter.
(§2) One day prior to testing, individual colonies were isolated by streaking onto rich, non-selective Tryptic Soy agar with 5% lysed sheeps blood (TSAB) with incubation at 35-37° C. for 18-24 hours.
(§3) Cultures were prepared by touching 3-5 colonies into 3 mL of Cation adjusted Mueller Hinton Broth (caMHB) in a 14 mL tube (CaMHB was prepared and sterilized according to manufacturer's specifications). Cultures were grown at 37° C. 200 rpm for approximately four hours prior to density adjustment for addition to the MIC assay.
(§4) OD600 of growing cultures was measured and adjusted to approximately 10^5 colony forming units per mL (CFU/mL) in caMHB for MIC inoculation (approximately OD600 0.001).
(§5) Diluted cultures were used to inoculate 50 μL per well in broth microdilution assays (final volume 100 μl per well; compounds were prepared in two-fold dilutions).
(§6) Plates were incubated 16-20 hrs at 37° C., with shaking at 200 rpm.
(§7) OD600 was determined for all wells. Growth was defined as OD600>0.1. MICs were defined as the lowest concentration producing no visible turbidity (OD600<0.1).

K. pneumonia 21 = test: MIC, broth microdilution; format: cell-based, Klebsiella pneumoniae; conditions: Table 3B
Procedure: as §1, §2, §3, §4, §5, §6, §7

[1] = tested on: Rat kidney proximal tubule cells; test: Cell culture cytotoxicity assay (ATP bioluminescence, LLC-PK1); format: cell-based; conditions: LLC-PK1, 24 hours, ATP readout
Procedure: Day 1: 1×10^5 to 2×10^5 cellswere inoculated (Cell line: LLC-PK1) per flask, containing 4 mL/T25 flask of medium DMEM-F12 (50/50) media supplemented with 10% FBS (Fetal Bovine Serum). The cells were then incubated at 37° C., 5% CO2, 80% RH.
Day 4: The cell cultures were examined to determine 80% confluency. To trypsinize of the 80% confluent flasks, 4 mL of DMEM-F12-10% FBS media was prepared per flask. The media was aspirated from the flask and 5 mL of Versene was added to rinse the flask. The Versene was aspirated and 2 mL of triple Express solution (trypsin solution) was added. The cells were incubated for 5 min at room temperature and examined via microscopy for the rounding of the cells and their detachment. To speed up the reaction, the flask can be incubated at 37° C. for 3 minutes. 4 mL of media (DMEM-F12-10%FBS) was added to stop the reaction. Using a 5 mL pipette, the completed reaction was pipetted up and down to ensure that the cells were properly detached from the flask and from each others. The cell number was counted using a hemocytometer slide. 100 μL of cell suspension was transferred to a tube and 100 μL of Trypan Blue was added. Inoculum for 96 well is 10,000 cells per well. For one 96 well plate, 26.3 μL×110 well=2893 μL total. 2.9 mL of cell suspension was mixed with 8.1 mL of media DMEM-F12-10% FBS and 100 μL was distributed to each well using a multichannel pipetter. The plate was then Incubated for 24 h at 37° C.
Day 5: DMEM-F12 (no FBS) medium was dispensed into tubes with the test article to achieve final concentrations of […]. The 96 well plate was taken off the incubator and media was removed from each well using multichannel pipetter. 80 μL of serially diluted compounds of Formula (I) was added to each well. Every set of concentration was done in triplicate. Media and positive controls were added to each plate and the plates were incubated for 24 hours at 37° C.
Day 6: The plates were taken from the incubator, the media was removed from each well, and 100 μL of fresh media DMEM-F12 (this is equivalent to a rinse and the media can be replaced with PBS) was added. The media is then removed and 80 μL of cell lysis solution is added. After 5 minutes, 80 μL of sterile filtered high quality water was added to each well. Using a white or black 96 well reaction plate, 80 μL of 25× diluted ATP mix reagent (Sigma Bioluminescent Somatic Cell Assay Kit [cat #FL-ASC]) was added into one column. 80 μL of diluted ATP standards (dilutions used: 250, 500, 1000, 2000 and 4000) was added and the plate was read immediately in the topcount with a 2 second read time. In another white or black 96 well reaction plate, 80 μL of 25× diluted ATP mix reagent (plate A) was added and 80 μL of lysis-water solution was transferred to each column of plate A. The plate was then read immediately in the topcount with a 2 second read time. This process was repeated for next consecutive plate and the EC50 for certain compounds of Formula I were calculated and provided in Table 4.

[2] = tested on: 5 different Gram negative pathogens; test: Efficacy in 8 animal models with 5 Gram negative pathogens; format: in vivo; conditions: 8 models, mouse and rat
Procedure: Compound 5 was tested for efficacy in 8 models (both mouse models and rat models) with 5 different Gram negative pathogens. […]

[3] = tested on: indole-positive Proteae, P. mirabilis, and S. marcescans; test: In vitro activity against organisms intrinsically resistant to colistin; format: cell-based
Procedure: To evaluate the potency and spectrum of compounds of Formula (I), (i.e., Compounds designated 5 and 6), a study was conducted that put together a panel of 455 Gram negative strains, which included multi-drug resistant clinical isolates selected from various surveillance programs. Table 3A lists the strains that were included in the study and the activity of Compound 5, Compound 6, and colistin (polymyxin E, abbreviated PME). Strains with acquired resistance to colistin and/or carbapenems and/or broad spectrum cephalosporins were pre-selected and included in all organism groups evaluated.
as §1

pH of aqueous solution = format: physicochemical; conditions: at 5 mg/mL in water
Hygroscopicity = format: physicochemical
[4] = tested on: female cynomolgus monkeys; test: Seven days of repeated IV administration, kidney findings (QD/BID mg/kg doses); format: in vivo, cynomolgus monkey; conditions: 6 mg/kg BID
Procedure: The kidney findings in female cynomolgus monkeys following seven days of repeated IV administration of Compound 5 were evident at dose levels of 6 mg/kg BID, 6 mg/kg QD, and 9 mg/kg QD, and to a lesser degree of severity at 3 and 4.5 mg/kg BID.

[5] = Dissociation constant (pKa)

## CC(C)C[C@@H]1NC(=O)[C@@H](Cc2ccccc2)NC(=O)[C@H](CCN)NC(=O)[C@@H](NC(=O)[C@H](CCN)NC(=O)[C@@H](NC(=O)[C@H](CCN)NC(=O)Nc2ccccc2Cl)[C@@H](C)O)CCNC(=O)[C@H]([C@@H](C)O)NC(=O)[C@H](CCN)NC(=O)[C@H](CCN)NC1=O [Compound 5, (S)-4-amino-N-((2S,3R)-1-((S)-4-amino-1-oxo-1-((3S,6S,9S,12S,15R,18S,21S)-6,9,18-tris(2-aminoethyl)-15-benzyl-3-((R)-1-hydroxyethyl)-12-isobutyl-2,5,8,11,14,17,20-heptaoxo-1,4,7,10,13,16,19-heptaazacyclotricosan-21-ylamino)butan-2-ylamino)-3-hydroxy-1-oxobutan-2-yl)-2-(3-(2-chlorophenyl)ureido)butanamide] ({NH(2-ClPh)-CO}-[Dab]T[Dab][Dab][Dab][dF]L[Dab][Dab]T; lactam 4-C)
E. coli 1699
  MIC E. coli 1699: 2 micrograms/mL
K. pneumonia 21
  MIC K. pneumonia 21: 2 micrograms/mL
[1]
  EC50 Rat kidney proximal tubule cells: >1000 micrograms/ml
[2]
  models in which efficacy was demonstrated: 7 out of 8
[3]
  activity against organisms intrinsically resistant to colistin: limited activity
pH of aqueous solution
  pH: 5.9, at 5 mg/mL in water
Hygroscopicity
  Hygroscopicity: Very hygroscopic
[4]; 6 mg/kg QD, 9 mg/kg QD
  blood urea nitrogen (BUN) and serum creatinine: increase
[4]; 6 and 9 mg/kg QD, lesser severity at 3 and 4.5 mg/kg BID, 7 days IV
  kidney histopathological changes: minimal to mild degeneration/necrosis and regeneration of tubular epithelium
Lipophilicity (Log P)
  logP: < -1
[5]
  pKa: 8.17
